Results: PMC6193938, “Characterization of a novel AICARFT inhibitor which potently elevates ZMP and has anti-tumor activity in murine models” (Scientific Reports, 2018)
Entries after “also recorded” stand apart in the source; their conditions may differ.

What was measured:
[1] = system: A9 cells; assay: MS detection of ZMP and dUMP in cultured cells; format: cell-based, murine
Description: To mimic human plasma levels, low folate media is traditionally used in which the folate comes only from the defined fetal bovine serum. […] Because LSN3213128 would be dosed in mice on normal diet, cell line screening was performed under standard tissue culture conditions to identify cell lines sensitive to treatment under high folate conditions. In order to compare tissue culture values with tumor levels, an average 4 pL cell volume[36] was used to calculate cellular ZMP concentrations. In MDA-MB-231[…] cells using regular RPMI, the peak intracellular ZMP levels are about 770 μM while in the salvage deficient A9 cells ZMP is 6,500 μM. […] It is not surprising that in vivo in mice on standard chow where folate plasma levels are >10-fold lower than tissue culture that tumor ZMP levels are also lower. […] ZMP was detected in cultured cells via mass spec analysis. Cells were plated in 96-well plates at 25,000 cells per well in 100 μL with either high or low folate RPMI media and incubated overnight at 37 °C with 5% CO2. Cells were treated with inhibitor compounds for 16 hours, 0.5% DMSO final concentration. Growth media was decanted and cells were lysed for 10 min at room temperature with 50 μL per well of 1x Sure Fire Lysis buffer (Perkin Elmer, SureFire kit component). […] Samples were sealed, vortexed for 5 minutes, and placed in the refrigerator for at least 30 minutes. The samples were centrifuged at 4 °C for 10 minutes at 16,600 g. 75 μL of the aqueous layer were transferred to a clean 96-well plate and seal prior to analysis. The LC-MS method utilizes a Shimadzu Prominence 20 A HPLC system connected to an AB Sciex 5500TM or an AB Sciex 6500TM triple quadrupole mass spectrometer. […] […] dUMP were detected using positive ion TurboIonSpray® multiple reaction monitoring mode and the data were processed with AB Sciex MultiQuantTM. Back-calculated ZMP concentrations were fit to a four-parameter logistic equation using ACTIVITYBASE 4.0 to determine EC50 values relative to the maximum observed metabolite levels.

[2] = Pharmacokinetic studies; format: in vivo; details: mouse
Description: Blood samples were obtained through tail clip at 0, 0.08 (IV only), 0.25, 0.75, 2, 4, 8, and 24 hours where approximately 20 µL of blood was filled to capacity into EDTA-coated capillary tubes (Fisher Scientific,) and spotted on to Whatman® DMPK-C DBS collection (GE Healthcare Bio-Sciences). Once spotted, the cards were allowed to dry for 2 hours, placed in Ziploc® bags (S.C. Johnson & Son, Inc.) and shipped to the bioanalytical facility at ambient temperature. Punches (3 mm) from DBS cards were extracted with 180 µL of a 20 ng/mL analog IS (proprietary Lilly compound) in methanol/acetonitrile (1:1, v/v) solution in 96-well plates. Samples were quantitated using LC-MS analysis (AB Sciex® API 4000 triple-quadrupole mass spectrometer (Life Technologies Corporation). PK parameters were calculated for concentration time profiles using Watson LIMS version 7.4 (Thermo Scientific).

[3] = target: T1, AKT3 (Homo sapiens, UniProt Q9Y243); assay: CEREP protein kinase assay; format: biochemical
T1 construct: purchased CEREP Panlabs (Eurofins)

[4] = target: T2, CHK2 (Homo sapiens, UniProt O96017); assay: CEREP protein kinase assay; format: biochemical
T2 construct: purchased CEREP Panlabs (Eurofins)

[5] = target: T3, FLT4 (Homo sapiens, UniProt P35916); assay: CEREP protein kinase assay; format: biochemical
T3 construct: purchased CEREP Panlabs (Eurofins)

[6] = target: T4, IRK (Homo sapiens, UniProt P06213); assay: CEREP protein kinase assay; format: biochemical
T4 construct: purchased CEREP Panlabs (Eurofins)

[7] = target: T5, PIM1 (Homo sapiens, UniProt P11309); assay: CEREP protein kinase assay; format: biochemical
T5 construct: purchased CEREP Panlabs (Eurofins)

[8] = target: T6, TBK1 (Homo sapiens, UniProt Q9UHD2); assay: CEREP protein kinase assay; format: biochemical
T6 construct: purchased CEREP Panlabs (Eurofins)
T6 sequence (Q9UHD2 1-729): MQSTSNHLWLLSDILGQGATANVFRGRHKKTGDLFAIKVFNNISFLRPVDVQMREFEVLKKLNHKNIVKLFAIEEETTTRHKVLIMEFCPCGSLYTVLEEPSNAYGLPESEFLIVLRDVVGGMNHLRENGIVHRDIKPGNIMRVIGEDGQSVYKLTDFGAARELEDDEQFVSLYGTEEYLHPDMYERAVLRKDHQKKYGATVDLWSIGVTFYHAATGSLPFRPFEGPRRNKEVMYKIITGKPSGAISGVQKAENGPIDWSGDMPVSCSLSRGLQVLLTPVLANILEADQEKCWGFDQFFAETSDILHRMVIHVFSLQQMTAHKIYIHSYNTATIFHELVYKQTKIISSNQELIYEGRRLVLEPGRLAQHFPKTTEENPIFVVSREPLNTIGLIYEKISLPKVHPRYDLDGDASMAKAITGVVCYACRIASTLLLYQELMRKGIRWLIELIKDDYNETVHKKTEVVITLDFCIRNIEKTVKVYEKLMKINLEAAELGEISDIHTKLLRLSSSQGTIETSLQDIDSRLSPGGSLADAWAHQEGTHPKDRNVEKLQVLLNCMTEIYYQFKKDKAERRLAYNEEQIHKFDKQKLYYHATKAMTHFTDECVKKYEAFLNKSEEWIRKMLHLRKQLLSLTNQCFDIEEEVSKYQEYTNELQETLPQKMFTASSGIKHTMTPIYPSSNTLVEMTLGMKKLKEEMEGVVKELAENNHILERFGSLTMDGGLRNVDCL

[9] = male, CD-1, whole blood (dried blood spots), oral 10 mg/kg

T5 sequence (P11309 whole entry): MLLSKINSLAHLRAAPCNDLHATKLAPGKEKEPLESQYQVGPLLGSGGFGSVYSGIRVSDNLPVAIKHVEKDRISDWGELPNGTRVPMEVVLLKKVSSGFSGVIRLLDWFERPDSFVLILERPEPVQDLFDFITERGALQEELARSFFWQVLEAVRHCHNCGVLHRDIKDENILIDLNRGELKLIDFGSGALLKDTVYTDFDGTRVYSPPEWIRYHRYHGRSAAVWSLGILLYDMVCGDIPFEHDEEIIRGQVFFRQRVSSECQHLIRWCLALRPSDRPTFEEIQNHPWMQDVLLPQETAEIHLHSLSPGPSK
T4 sequence (P06213 28-1382): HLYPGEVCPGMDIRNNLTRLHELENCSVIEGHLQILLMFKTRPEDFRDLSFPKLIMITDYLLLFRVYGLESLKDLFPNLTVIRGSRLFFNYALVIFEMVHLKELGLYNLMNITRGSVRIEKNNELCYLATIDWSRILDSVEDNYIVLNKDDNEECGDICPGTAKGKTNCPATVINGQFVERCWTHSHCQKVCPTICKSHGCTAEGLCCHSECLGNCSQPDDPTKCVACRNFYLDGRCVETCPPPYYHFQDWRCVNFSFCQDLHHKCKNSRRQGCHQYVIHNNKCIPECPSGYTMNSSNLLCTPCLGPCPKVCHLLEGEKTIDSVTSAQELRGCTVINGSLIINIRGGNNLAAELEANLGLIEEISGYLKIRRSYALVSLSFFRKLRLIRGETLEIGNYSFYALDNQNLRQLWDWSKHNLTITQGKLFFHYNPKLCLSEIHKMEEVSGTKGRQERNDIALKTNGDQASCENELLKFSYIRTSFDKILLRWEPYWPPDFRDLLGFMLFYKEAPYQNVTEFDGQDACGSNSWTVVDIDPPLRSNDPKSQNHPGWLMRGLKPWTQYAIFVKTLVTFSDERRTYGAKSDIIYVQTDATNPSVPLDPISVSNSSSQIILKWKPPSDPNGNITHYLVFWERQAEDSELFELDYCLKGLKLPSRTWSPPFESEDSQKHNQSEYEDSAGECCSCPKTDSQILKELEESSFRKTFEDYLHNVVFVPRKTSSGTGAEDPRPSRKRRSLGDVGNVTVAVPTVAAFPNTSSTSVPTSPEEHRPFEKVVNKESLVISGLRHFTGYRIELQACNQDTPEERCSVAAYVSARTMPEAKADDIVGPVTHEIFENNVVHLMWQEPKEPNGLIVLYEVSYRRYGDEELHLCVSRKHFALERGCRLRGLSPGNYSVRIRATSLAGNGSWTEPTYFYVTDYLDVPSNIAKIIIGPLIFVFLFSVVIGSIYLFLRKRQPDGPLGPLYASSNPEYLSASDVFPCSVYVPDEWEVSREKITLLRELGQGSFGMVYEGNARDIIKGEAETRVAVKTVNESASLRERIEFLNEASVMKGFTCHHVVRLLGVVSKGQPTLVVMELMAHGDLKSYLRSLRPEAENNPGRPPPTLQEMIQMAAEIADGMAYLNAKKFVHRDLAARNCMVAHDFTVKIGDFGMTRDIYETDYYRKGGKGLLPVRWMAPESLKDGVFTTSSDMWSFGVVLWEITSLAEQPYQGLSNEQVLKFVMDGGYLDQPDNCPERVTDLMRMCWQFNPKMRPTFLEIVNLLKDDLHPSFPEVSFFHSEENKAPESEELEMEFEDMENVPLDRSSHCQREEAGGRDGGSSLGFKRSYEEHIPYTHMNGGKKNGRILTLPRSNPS
T2 sequence (O96017 whole entry): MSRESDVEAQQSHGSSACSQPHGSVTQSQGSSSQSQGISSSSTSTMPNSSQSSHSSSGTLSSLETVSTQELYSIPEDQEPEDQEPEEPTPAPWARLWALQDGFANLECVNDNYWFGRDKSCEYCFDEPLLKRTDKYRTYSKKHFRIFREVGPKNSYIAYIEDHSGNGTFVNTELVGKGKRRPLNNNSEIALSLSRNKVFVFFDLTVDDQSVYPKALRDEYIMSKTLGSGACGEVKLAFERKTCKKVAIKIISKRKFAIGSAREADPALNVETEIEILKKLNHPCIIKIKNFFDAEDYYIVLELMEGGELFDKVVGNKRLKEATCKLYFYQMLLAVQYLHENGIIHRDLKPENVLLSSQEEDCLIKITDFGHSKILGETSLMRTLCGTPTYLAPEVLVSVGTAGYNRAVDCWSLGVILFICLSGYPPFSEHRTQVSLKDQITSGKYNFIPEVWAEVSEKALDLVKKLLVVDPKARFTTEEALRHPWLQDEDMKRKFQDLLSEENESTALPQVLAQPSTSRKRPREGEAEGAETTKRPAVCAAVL
T3 sequence (P35916 25-1363): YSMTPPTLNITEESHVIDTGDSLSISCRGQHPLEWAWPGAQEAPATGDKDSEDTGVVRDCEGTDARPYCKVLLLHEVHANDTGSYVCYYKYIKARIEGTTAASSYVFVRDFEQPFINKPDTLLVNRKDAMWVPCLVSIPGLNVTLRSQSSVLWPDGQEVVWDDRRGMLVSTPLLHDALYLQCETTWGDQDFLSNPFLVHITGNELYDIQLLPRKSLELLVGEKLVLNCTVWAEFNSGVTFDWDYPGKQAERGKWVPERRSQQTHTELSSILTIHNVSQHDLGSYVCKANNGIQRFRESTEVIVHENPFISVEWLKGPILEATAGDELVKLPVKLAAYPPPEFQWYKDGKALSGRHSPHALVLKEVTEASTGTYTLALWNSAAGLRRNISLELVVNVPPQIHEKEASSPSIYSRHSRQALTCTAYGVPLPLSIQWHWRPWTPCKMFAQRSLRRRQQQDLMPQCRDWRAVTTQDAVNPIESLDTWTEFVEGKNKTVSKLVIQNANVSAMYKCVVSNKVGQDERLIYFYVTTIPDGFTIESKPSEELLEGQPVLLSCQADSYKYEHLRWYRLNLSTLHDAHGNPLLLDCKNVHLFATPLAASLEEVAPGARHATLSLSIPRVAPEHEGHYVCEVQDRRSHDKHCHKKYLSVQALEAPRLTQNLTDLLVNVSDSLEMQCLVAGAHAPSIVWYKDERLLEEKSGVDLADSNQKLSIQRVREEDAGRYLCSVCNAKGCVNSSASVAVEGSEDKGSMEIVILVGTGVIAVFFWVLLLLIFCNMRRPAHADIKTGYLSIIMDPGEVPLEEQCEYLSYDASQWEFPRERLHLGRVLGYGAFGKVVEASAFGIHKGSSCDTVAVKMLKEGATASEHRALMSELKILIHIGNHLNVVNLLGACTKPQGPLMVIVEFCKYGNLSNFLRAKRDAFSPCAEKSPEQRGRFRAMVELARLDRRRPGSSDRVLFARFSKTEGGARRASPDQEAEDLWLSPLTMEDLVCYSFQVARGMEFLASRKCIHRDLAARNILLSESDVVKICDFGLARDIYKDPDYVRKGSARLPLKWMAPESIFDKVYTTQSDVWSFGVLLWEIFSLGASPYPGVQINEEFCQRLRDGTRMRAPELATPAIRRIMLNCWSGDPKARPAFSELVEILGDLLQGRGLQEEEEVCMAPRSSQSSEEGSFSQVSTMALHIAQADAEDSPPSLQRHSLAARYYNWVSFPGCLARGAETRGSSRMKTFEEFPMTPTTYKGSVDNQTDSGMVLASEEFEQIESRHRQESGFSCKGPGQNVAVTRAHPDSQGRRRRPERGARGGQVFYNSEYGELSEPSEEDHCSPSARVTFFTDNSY
T1 sequence (Q9Y243 whole entry): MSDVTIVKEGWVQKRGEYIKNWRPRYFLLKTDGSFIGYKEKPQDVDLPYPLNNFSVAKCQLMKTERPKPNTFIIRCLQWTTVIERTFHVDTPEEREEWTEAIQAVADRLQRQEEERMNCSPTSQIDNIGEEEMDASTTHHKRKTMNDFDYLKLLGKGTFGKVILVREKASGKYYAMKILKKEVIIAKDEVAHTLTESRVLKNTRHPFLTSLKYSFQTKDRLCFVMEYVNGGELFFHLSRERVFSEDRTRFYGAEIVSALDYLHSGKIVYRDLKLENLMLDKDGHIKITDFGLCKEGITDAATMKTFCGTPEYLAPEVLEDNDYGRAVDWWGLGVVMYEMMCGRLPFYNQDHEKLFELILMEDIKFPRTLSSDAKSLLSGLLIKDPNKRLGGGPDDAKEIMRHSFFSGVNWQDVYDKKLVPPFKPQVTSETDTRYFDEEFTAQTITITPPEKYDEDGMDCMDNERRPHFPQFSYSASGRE

For O=c1[nH]ccc2cc(F)c(NS(=O)(=O)c3ccc(N4CC[C@@H](O)C4)s3)cc12 [LSN3213128, N-(6-Fluoro-1-oxo-1,2-dihydroisoquinolin-7-yl)-5-[(3R)-3-hydroxypyrrolidin-1-yl]thiophene-2-sulfonamide], the “dUMP levels in tissue culture” value ([1]; A9) was “No changes; also recorded: does not alter”, the “peak intracellular ZMP levels” value ([1]; A9 cells, calculated with 4 pL cell volume) was 6,500 μM and the Vd ([2]; male, CD-1, whole blood (dried blood spots), intravenous 1 mg/kg, read-out: volume of distribution) was 0.779 ± 0.17 L/kg. For the same compound, the AUC [2, 9] was 20.2 ± 4.52 µM·h, the Cmax [2, 9] was 4.57 ± 0.559 µM and the bioavailability ([2]; male, CD-1, whole blood (dried blood spots), oral 10 mg/kg vs intravenous 1 mg/kg) was 24.6 ± 4.6%. For the same compound, the half-life ([2]; oral 10 mg/kg) was 2.4 ± 0.3 h, the “unbound Cmax” value ([2]; oral 10 mg/kg) was 0.251 ± 0.031 µM and the inhibition at 0.2 µM ([3]; @ 0.2 uM) was -0.699%. It also gave an inhibition at 2 µM ([3]; @ 2 uM) of 5.67%, an inhibition at 20 µM ([3]; @ 20 uM) of 13% and an inhibition at 0.2 µM ([4]; @ 0.2 uM) of -9.59%. The inhibition at 2 µM ([4]; @ 2 uM) was 14.3%, the inhibition at 20 µM ([4]; @ 20 uM) was 8.93% and the inhibition at 0.2 µM ([5]; @ 0.2 uM) was -9.28%. For the same compound, the inhibition at 2 µM ([5]; @ 2 uM) was 6.53%, the inhibition at 20 µM ([5]; @ 20 uM) was 70.5% and the inhibition at 0.2 µM ([6]; @ 0.2 uM) was -0.8%. The inhibition at 2 µM ([6]; @ 2 uM) was 10.6%, the inhibition at 20 µM ([6]; @ 20 uM) was 12.9% and the inhibition at 0.2 µM ([7]; @ 0.2 uM) was 7.96%. The inhibition at 2 µM ([7]; @ 2 uM) was 13.3%, the inhibition at 20 µM ([7]; @ 20 uM) was 26.5% and the inhibition at 0.2 µM ([8]; @ 0.2 uM) was -3.62%. It also gave an inhibition at 2 µM ([8]; @ 2 uM) of 13.1% and an inhibition at 20 µM ([8]; @ 20 uM) of 11%.
